From patent publication US20120058133A1, “INHIBITION OF TRNA SYNTHETASES AND THERAPEUTIC APPLICATIONS THEREOF” (President and Fellows of Harvard College, priority 2009, published 2012)
pIC50: −log10 of the molar value. Where two headings read alike, the source gives them in different places.

Experiments:
[1] = test system: murine CD4+ CD25− T cells; experiment: Th17 differentiation of activated CD4+ CD25− T cells (TGFβ plus IL-6; IL-17+ IFNγ− cells); assay type: cell-based, mouse; details: for rescue of HF-inhibited Th17 differentiation by added amino acids: 1 mM amino acids; for pIC50: Mus musculus, T-cell
Procedure: Purified CD4^+ CD25^− T cells were activated in vitro as previously described (Djuretic et al., Nat. Immunol. 8:145, 2007) using 0.3 μg/ml hamster anti-mouse CD3 (clone 145-2C11) (ATCC—Manassas, Va.) and 0.5 μg/ml hamster anti-mouse CD28 (BD Pharmingen—San Jose, Calif.). Activated cell cultures were differentiated using the following combinations of cytokines and antibodies: iTreg-recombinant human TGFβ1 (3 ng/ml—R&D systems, Minneapolis, Minn.), Th17-TGFβ1 (3 ng/ml) plus recombinant mouse IL-6 (30 ng/ml—R&D systems). Th1 and Th2 differentiation was performed as previously described (Djuretic et al., Nat. Immunol. 8:145, 2007). Human IL-2 supernatant (National Cancer Institute) was used in culture at 0.01 U/ml and was added at 48 hours-post activation when T cells were split into tissue culture wells lacking CD3 and CD28 antibodies, with the exception of Th17 cultures that were maintained in the absence of exogenous IL-2. CD8^+ T cells were activated with 1 μg/ml anti-CD3 and 1 μg/ml anti-CD28 and were expanded in 0.1 U/ml IL-2 until day 6 post activation. CD43-depleted B cells were activated in vitro by culturing with 25 μg/ml LPS (Sigma—St. Louis, Mo.) for 3-4 days in the presence or absence of TGFβ. All reagents (see below) were added at the time of T cell activation and again at 48 hours post activation unless indicated otherwise. For some experiments, purified CD4^+ CD25^− T cells, CD8^+ T cells or B cells were labeled with 1 μM CFSE (Invitrogen) prior to activation in accordance with manufacturer's instructions. Human T cell activation was performed by plating purified monocytes in a 96-well flat bottom plate at a concentration of 2×10^4 cells per well in complete medium overnight. 10^5 purified human memory T cells were added to monocyte cultures in the presence of soluble anti-CD3/anti-CD28 beads (Dynabeads, Invitrogen). T cells were expanded in the presence HF or MAZ1310 for up to 6 days.
MAZ1310 (Kamberov, Ph.D. Dissertation, Harvard University, 2008) was generated by chemical derivatization of halofuginone and was used at equal concentrations as a negative control. HF and MAZ1310 were prepared as 100 mM stock solutions in DMSO and diluted to the indicated concentrations. SB-431542 (Inman et al., Mol. Pharmacol. 62:65, 2002) (Tocris bioscience—Ellisville, Mo.) was prepared as a 10 mM stock solution in DMSO and was used in culture at 10 μM. L-tryptophanol was prepared as a 20 mM stock solution in 0.1 M NaOH, pH 7.4 and was used at 0.2 mM. For amino acid starvation experiments, T cells were activated and differentiated as above in D-MEM medium without L-cysteine and L-methionine (Invitrogen—Carlsbad, Calif.), or D-MEM medium without L-leucine. Stocks containing 20 mM L-cysteine (Sigma—St. Louis, Mo.) plus 10 mM L-methionine (Sigma), or 400 mM L-leucine (Sigma) were prepared in ddH2O, pH 1.0 and were added to medium at the indicated concentrations.
For detection of intracellular cytokines in murine cells, cultured T or B cells were stimulated with 10 nM PMA (Sigma) and […] (Sigma) for 4-5 hours in the presence of 10 mM brefeldin A (Sigma). Stimulated cells were harvested, washed with PBS and fixed with PBS plus 4% paraformaldehyde at room temperature for 20 minutes. Cells were then washed with PBS, permeabilized with PBS supplemented with 1% BSA and 0.5% saponin (Sigma) at room temperature for 10 minutes before cytokine-specific antibodies were added and incubated with cells for an additional 20 minutes at room temperature.

prolyl tRNA synthetase = molecular target: T1, prolyl tRNA synthetase (Oryctolagus cuniculus, UniProt G1T2I4); experiment: tRNA charging in RRL (14C Pro or 35S Met incorporation into tRNA); assay type: biochemical, rabbit
T1 construct: from tissue; host or cells: rabbit reticulocyte lysate (RRL)
T1 sequence (G1T2I4 1-1447): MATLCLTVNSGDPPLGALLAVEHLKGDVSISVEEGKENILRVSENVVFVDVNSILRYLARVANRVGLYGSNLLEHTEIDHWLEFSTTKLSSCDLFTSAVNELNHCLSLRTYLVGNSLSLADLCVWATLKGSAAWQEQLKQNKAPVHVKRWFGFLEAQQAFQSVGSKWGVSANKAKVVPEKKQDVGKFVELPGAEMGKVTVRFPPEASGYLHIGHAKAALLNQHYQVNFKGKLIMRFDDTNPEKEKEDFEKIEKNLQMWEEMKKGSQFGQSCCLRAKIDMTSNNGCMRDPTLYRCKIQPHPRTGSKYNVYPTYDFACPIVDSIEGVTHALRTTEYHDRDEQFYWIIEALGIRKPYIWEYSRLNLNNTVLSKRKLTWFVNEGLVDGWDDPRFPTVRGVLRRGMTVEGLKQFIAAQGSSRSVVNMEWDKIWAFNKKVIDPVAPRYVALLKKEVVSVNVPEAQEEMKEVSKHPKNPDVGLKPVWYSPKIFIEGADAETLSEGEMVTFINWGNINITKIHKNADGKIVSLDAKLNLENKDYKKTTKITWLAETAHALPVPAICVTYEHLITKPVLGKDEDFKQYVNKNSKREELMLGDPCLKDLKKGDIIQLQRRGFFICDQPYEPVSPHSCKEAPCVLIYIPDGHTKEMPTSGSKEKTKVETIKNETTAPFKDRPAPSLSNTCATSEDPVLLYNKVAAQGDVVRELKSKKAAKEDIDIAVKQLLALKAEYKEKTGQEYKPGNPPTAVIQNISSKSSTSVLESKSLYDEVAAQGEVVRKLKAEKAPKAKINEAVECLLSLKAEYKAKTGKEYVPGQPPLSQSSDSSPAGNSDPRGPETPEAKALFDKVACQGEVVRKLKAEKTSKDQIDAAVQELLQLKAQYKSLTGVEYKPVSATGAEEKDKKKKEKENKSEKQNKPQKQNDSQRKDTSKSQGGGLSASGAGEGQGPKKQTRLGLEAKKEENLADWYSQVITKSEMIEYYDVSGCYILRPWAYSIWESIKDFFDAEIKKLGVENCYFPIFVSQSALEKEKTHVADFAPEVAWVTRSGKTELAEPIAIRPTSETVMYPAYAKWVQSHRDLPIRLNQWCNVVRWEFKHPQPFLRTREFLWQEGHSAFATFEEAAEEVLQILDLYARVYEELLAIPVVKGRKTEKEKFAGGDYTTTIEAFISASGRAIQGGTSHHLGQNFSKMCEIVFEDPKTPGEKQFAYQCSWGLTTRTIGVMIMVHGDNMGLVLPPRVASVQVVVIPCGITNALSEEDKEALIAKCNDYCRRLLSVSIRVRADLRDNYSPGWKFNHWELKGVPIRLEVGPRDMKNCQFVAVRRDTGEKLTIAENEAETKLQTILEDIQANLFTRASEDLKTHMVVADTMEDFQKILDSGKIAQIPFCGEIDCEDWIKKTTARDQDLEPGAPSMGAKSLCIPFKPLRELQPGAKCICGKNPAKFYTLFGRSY
Procedure: FIG. 23D is a graph showing that HF inhibits prolyl tRNA synthetase activity in RRL. ^14C Pro or ^35S Met were incubated with RRL and total bovine tRNA in the presence or absence of HF or MAZ1310, and incorporation of radioactivity into tRNA was measured by liquid scintillation counting. Error bars reflect standard deviation of triplicate determinations. Data are representative of two separate experiments.
The effects of HF on prolyl-tRNA charging was examined. RRL were supplemented with ^14C-Pro or ^35S-Met in the presence or absence of HF, and total tRNA was isolated (FIG. 23D).

luciferase = experiment: Standard luciferase assay; assay type: biochemical; details: not shown

Molecule	IL-17 expression in T cells ([1]; low concentrations of tunicamycin)	incorporation of 14C-Pro into tRNA (prolyl tRNA synthetase)	IL-17 expression with IFNγ and IL-4 blocked by neutralizing antibodies [1]	Th17 differentiation in T cells transduced with RORγt-expressing vs empty retroviruses [1]	IL-17 expression in cells with equivalent number of cell divisions (CFSE dilution) ([1]; 5 nM, 10 nM HF)	IL-17 expression in T cells lacking Foxp3 ([1]; 10 nM HF)	Th17 differentiation of T cells expressing STAT3C ([1]; 10 nM HF)	upregulation of RORγt or RORα during Th17 differentiation ([1]; 10 nM HF)	time of HF addition for inhibition of IL-17 expression ([1]; 10 nM HF added at times after activation)	rescue of HF-inhibited Th17 differentiation by added amino acids ([1]; 10 nM HF)	rescue of HF-inhibited Th17 differentiation by added amino acids ([1]; 10 nM HF, listed as halofuginone)	Foxp3 expression in T cells differentiated with TGFβ plus IL-6 ([1]; 10 nM HF, day 3)	expression of IL-17 and IL-17f mRNA ([1]; 10 nM, 4 days, Th17 conditions)	pIC50 ([1]; 96 h, restimulation on day 4-5, read-out: IC50 for Th17 differentiation (percentage of IL-17+ IFNγ− cells))	pIC50 ([1]; read-out: concentration giving 50% inhibition of Th17 cell development)	Th17 differentiation of cells expressing YFP or no transgene ([1]; TAT-Cre treated, TGFβ plus IL-6)	IL-17 production ([1]; low concentrations of HF (1-10 nM))	direct effect on luciferase activity (luciferase)
tunicamycin	little influence on IL-17 expression																	
O=C(CC1NCCCC1O)Cn1cnc2cc(Br)c(Cl)cc2c1=O (racemic) [HF, halofuginone]		inhibited	reduced IL-17 expression	inhibited Th17 differentiation as effectively	inhibited IL-17 expression in a dose-dependent manner	strongly repressed IL-17 expression	remained capable of differentiating into Th17 cells	did not interfere	most pronounced when HF was added during a 12-hour window at the start of the culture period	only proline rescued Th17 differentiation	Proline, and no other added amino acid, rescues the inhibition of Th17 differentiation	enhanced Foxp3 expression	impaired	8.44	~8.52	strongly impaired Th17 differentiation	strongly reduced	no direct effect
